Measured values reported in PMC7425875, “Identification of peptides interfering with the LRRK2/PP1 interaction” (PLoS ONE, 2020).
No end group written: not given here.

What was measured:
LRRK2/PP1 interaction = molecular target: T1, LRRK2/PP1 interaction (Homo sapiens, UniProt P62136); assay: In vitro competition of LRRK2/PP1 interaction in anti-PP1 immunoprecipitates (western blot); format: binding; settings: 1 mM peptide, 30 min room temperature, MDA-MB231 lysates
T1 construct: MDA-MB231 cells were lysed and cytoplasmic extracts immunoprecipitated with anti-PP1 antibody (Santa Cruz); endogenous in cells; host or cells: MDA-MB231
Procedure: The protocol was previously described. Briefly, cells (5x10^6) were lysed for 20 min at 4°C in lysis buffer (50 mM Tris pH8, 1% NP40, 137 mM NaCl, 1 mM MgCl2, 1 mM CaCl2, 10% glycerol and protease inhibitor mixture Sigma Aldrich). Lysates (500 μg) were immunoprecipitated with the appropriated antibody overnight at 4°C and protein A/G Sepharose (Santa Cruz) was added for 1h at 4°C. After washing with 1x TBST (20 mM Tris-HCl pH7.5, 150 mM NaCl, 0.05% Tween 20), the PP1/LRRK2 interaction was competed using 1 mM of the Mut3DPT-LRRK2-Long or Mut3DPT-LRRK2-Shor peptide for 30 min at room temperature. After several washing steps, immunoprecipitates were separated by SDS-PAGE, transferred to nitrocellulose and blotted with anti PP1 antibody (Santa Cruz or Thermo Fisher 1:500 dilution). The membrane was washed and incubated with PO-conjugates secondary antibody (Dako, 1:1000 dilution). Protein detection was performed using the ECL system (Bio-Rad). As internal control, the blot was also hybridized with anti-LRRK2 antibody (Abcam, ab133474, 1;500 dilution). Western blots were densitometred using Image J. Statistic analysis were done using Anova.

[1] = Analysis of peptide integrity in human serum (MALDI-TOF MS); format: in vitro ADME; settings: 37°C, different periods of time, mass spectrometry
Procedure: Peptides were incubated at 37°C in 250 μl of human serum (Sigma Aldrich) for different periods of time. Samples were collected and peptide degradation stopped by freezing. Peptides were extracted from samples using the Proteo Miner Protein Enrichment System (Bio-Rad). Percentage of intact peptide was estimated by mass spectrometry (MS) using MALDI-TOFF as described previously[19] (Bruker Autoflex II) following their protocol. Measurements were performed in triplicate. MS data were analysed using the software Cliprot tools, Felx analysis, Bruker.

T1 sequence (P62136 whole entry): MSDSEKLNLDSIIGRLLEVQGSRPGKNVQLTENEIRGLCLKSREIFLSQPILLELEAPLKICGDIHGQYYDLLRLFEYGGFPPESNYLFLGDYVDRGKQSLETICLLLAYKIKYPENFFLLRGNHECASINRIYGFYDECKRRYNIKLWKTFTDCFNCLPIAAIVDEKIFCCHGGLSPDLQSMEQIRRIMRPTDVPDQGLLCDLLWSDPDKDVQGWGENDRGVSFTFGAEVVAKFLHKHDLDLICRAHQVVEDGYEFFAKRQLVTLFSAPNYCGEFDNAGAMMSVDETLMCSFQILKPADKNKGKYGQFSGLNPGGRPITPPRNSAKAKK

VKKKKIKAEIKI [Mut3DPT, Optimized cell penetrating peptide (shuttle alone), derived from DPT-Sh1]
Competition of LRRK2/PP1 interaction (LRRK2 detected in anti-PP1 immunoprecipitates) (LRRK2/PP1 interaction): LRRK2 was detected

THRPPMWSPVWPGFWSRLINRLLEI [BBB-LRRK2-Short]
Resistance to degradation by proteases in human serum [1]: only very limited degradation

THRPPMWSPVWPPMGFWSRLINRLLEISPY [BBB-LRRK2-Long]
Resistance to degradation by proteases in human serum [1]: only very limited degradation
